Some test systems named below: HCC-2998 colon; UO-31 renal; SF-268 CNS; OVCAR-3 ovarian; HT29 colon; KM12 colon; OVCAR-4 ovarian; CAKI-1 renal; UACC-257 melanoma.
Experiment in all cases: NCI anticancer screen, dose series, 48 h

The source of these data is PubChem BioAssay (NCI).

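The compound was tested at five concentrations on cells cultured in 96-well plates, with a 48-hour exposure period. The concentration for 50% growth inhibition is given as GI50. Definition used: TGI = concentration required for complete inhibition of growth.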 Bounds are passed on as bounds.

For `C=CCn1c(C)nc2cc(Nc3nc(Nc4ccc5nc(C)n(CC=C)c5c4)c4ccccc4n3)ccc21`, the GI50 was 1.17 µM with HCC-2998 colon; 1.4 µM in the experiment on UO-31 renal; 1.28 µM with SF-268 CNS; 0.183 µM with OVCAR-3 ovarian; 0.19 µM with HT29 colon; 0.254 µM with KM12 colon. The GI50 was 0.24 µM with OVCAR-4 ovarian and 1.61 µM in the experiment on CAKI-1 renal. The TGI in the experiment on HCC-2998 colon amounted to 2.5 µM; in the experiment with UO-31 renal, 2.74 µM; in the experiment on SF-268 CNS, 3.1 µM; in the experiment with OVCAR-3 ovarian, 0.342 µM; with HT29 colon, 0.348 µM; with KM12 colon it was 0.659 µM. Besides, the figures for the TGI in the experiment with OVCAR-4 ovarian and in the experiment with CAKI-1 renal were 0.583 µM and 3.03 µM, respectively.
For `COc1ccc2c(c1)sc1nc(-c3ccccc3)c(-c3ccsc3)n12`, the GI50 with HCC-2998 colon was 4.86 µM; with UO-31 renal it was 6.03 µM; with SF-268 CNS, 8.54 µM; with OVCAR-3 ovarian, 2.15 µM; in the experiment with HT29 colon, 2.95 µM; in the experiment with UACC-257 melanoma, over 100 µM. The figures for the GI50 with KM12 colon, in the experiment on OVCAR-4 ovarian and in the experiment on CAKI-1 renal were 3.7 µM, 3.7 µM and 5.04 µM, respectively. The TGI in the experiment on HCC-2998 colon was 93.1 µM; in the experiment with UO-31 renal it was over 100 µM; in the experiment on SF-268 CNS, over 100 µM; with OVCAR-3 ovarian it was 5.37 µM; with HT29 colon, 10.5 µM; in the experiment on UACC-257 melanoma, over 100 µM. For the same compound, the TGI in the experiment with KM12 colon, with OVCAR-4 ovarian and with CAKI-1 renal was over 100 µM in each case.
As to `O=c1cc(-c2ccccc2)[nH]c2cc(Cl)cc(Cl)c12`, the TGI with UO-31 renal is over 100 µM; in the experiment on SF-268 CNS, over 100 µM; with HT29 colon it was over 100 µM; in the experiment on UACC-257 melanoma, over 100 µM; with KM12 colon it was over 100 µM; in the experiment with OVCAR-4 ovarian, 68.6 µM. For the same compound, in the experiment with CAKI-1 renal, the TGI was over 100 µM.
Take `N#CCCc1nc2ccc(Br)cc2c(=O)n1CCO`: the TGI in the experiment on HCC-2998 colon, with UO-31 renal, in the experiment with SF-268 CNS, in the experiment on OVCAR-3 ovarian, in the experiment with UACC-257 melanoma and in the experiment on KM12 colon was over 100 µM in each case. Moreover, the TGI in the experiment on OVCAR-4 ovarian and with CAKI-1 renal was over 100 µM throughout.
For the compound `COP1(=O)CC2C(Cl)(Cl)C2(C)C1` (stereo not drawn), the TGI with HCC-2998 colon, with SF-268 CNS, in the experiment with OVCAR-3 ovarian, with HT29 colon, in the experiment with KM12 colon and in the experiment on OVCAR-4 ovarian was over 100 µM throughout.
In the case of `CCOC(=O)CCC(=O)C1c2cccc(O)c2C(=O)c2c(O)cccc21`, the TGI in the experiment with HCC-2998 colon stood at 2.31 µM; in the experiment with UO-31 renal, 1.48 µM; in the experiment with OVCAR-3 ovarian, 2.26 µM; in the experiment with HT29 colon, 6.24 µM; with UACC-257 melanoma, 3.3 µM; in the experiment on KM12 colon, 2.2 µM. The TGI in the experiment with OVCAR-4 ovarian is 1.86 µM; in the experiment with CAKI-1 renal, 4.99 µM.
Consider `CC(=O)N/C(=C\c1ccc(/C=C(\NC(C)=O)c2nc3ccc(Cl)cc3[nH]2)cc1)c1nc2ccccc2[nH]1`, for which the TGI with SF-268 CNS, in the experiment with OVCAR-3 ovarian, in the experiment on HT29 colon, in the experiment on KM12 colon and in the experiment on CAKI-1 renal was over 100 µM in each case.
Take `CCN(CC)CCCCC1CCN(CC(=O)N2CC(C)C(=O)Nc3ccccc32)CC1` (stereo not drawn): the TGI in the experiment on HCC-2998 colon, in the experiment on UO-31 renal, in the experiment on SF-268 CNS, with OVCAR-3 ovarian, in the experiment with HT29 colon and in the experiment on UACC-257 melanoma was over 100 µM each time. Also, the TGI with OVCAR-4 ovarian and in the experiment with CAKI-1 renal was over 100 µM each time.
As for `Cc1cc2nc3c(C(OC4OC(CO)C(O)C(O)C4O)C(O)CO)nn(-c4ccccc4)c3nc2cc1C` (stereo not drawn), the TGI with HCC-2998 colon, with UO-31 renal, with SF-268 CNS, in the experiment with OVCAR-3 ovarian, in the experiment on HT29 colon and in the experiment on UACC-257 melanoma was over 100 µM each time. Besides, the TGI in the experiment on KM12 colon and in the experiment on OVCAR-4 ovarian was over 100 µM throughout.
In the case of `CC(C)=CC(C(O)c1ccccc1)S(=O)(=O)c1nccn1C` (stereo not drawn), the TGI in the experiment with HCC-2998 colon, in the experiment on UO-31 renal, in the experiment with SF-268 CNS, with OVCAR-3 ovarian, in the experiment on HT29 colon and in the experiment on UACC-257 melanoma was over 100 µM throughout. In addition, the TGI in the experiment on KM12 colon and in the experiment with OVCAR-4 ovarian was over 100 µM each time.
Consider `O=[N+]([O-])c1c(/C=N/Nc2ccccc2)oc(-c2ccc3c(c2)OCO3)c1-c1ccc2c(c1)OCO2`, for which the TGI in the experiment with HCC-2998 colon was 34.3 µM; with SF-268 CNS, over 100 µM; in the experiment with OVCAR-3 ovarian it was 98.2 µM; in the experiment with HT29 colon it was over 100 µM; with UACC-257 melanoma, over 100 µM; in the experiment with OVCAR-4 ovarian, over 100 µM. The compound also showed a TGI with CAKI-1 renal of over 100 µM.
Turning to `Cc1cc2c(CC(=O)O)[nH]nc2c(C(=O)O)c1C`, the TGI with HCC-2998 colon, with UO-31 renal, with SF-268 CNS, in the experiment with OVCAR-3 ovarian, in the experiment on HT29 colon and with UACC-257 melanoma was over 100 µM each time.
Turning to `Cc1nc2ccc(C(F)(F)F)cc2nc1Nc1ccc(Cl)c(Cl)c1`, the TGI in the experiment with HCC-2998 colon worked out at 13.7 µM; in the experiment with UO-31 renal, 24.6 µM; in the experiment on SF-268 CNS, 37.5 µM; in the experiment on OVCAR-3 ovarian it was 26.9 µM; with HT29 colon, 18.6 µM; in the experiment with UACC-257 melanoma, 25.4 µM.
As to `CC(=O)O/N=C/c1ncccc1CO`, the TGI in the experiment on UO-31 renal, in the experiment with SF-268 CNS, in the experiment on OVCAR-3 ovarian, in the experiment on HT29 colon, in the experiment with UACC-257 melanoma and in the experiment with KM12 colon was over 100 µM throughout. For the same compound, the TGI in the experiment with OVCAR-4 ovarian and with CAKI-1 renal was over 100 µM throughout.
For the compound `O=c1cc(-c2ccccc2)[nH]c2cccc(S)c12`, the TGI in the experiment on HCC-2998 colon is 4 µM; in the experiment on SF-268 CNS it was over 100 µM; in the experiment with OVCAR-3 ovarian, over 100 µM; in the experiment with UACC-257 melanoma it was over 100 µM; with KM12 colon it was over 100 µM; in the experiment on OVCAR-4 ovarian, over 100 µM.
With `CCOc1ccccc1NC(=O)/C=C1\NC(=O)CS1`, the TGI with HCC-2998 colon, in the experiment with UO-31 renal, in the experiment on SF-268 CNS, in the experiment with OVCAR-3 ovarian, in the experiment with HT29 colon and in the experiment with KM12 colon was over 100 µM throughout. In addition, the TGI with OVCAR-4 ovarian and in the experiment with CAKI-1 renal was over 100 µM each time.
